EC50 and Emax data for eight compounds are collected here from patent publication US20220041606A1, “POSITIVE ALLOSTERIC MODULATORS OF THE MUSCARINIC ACETYLCHOLINE RECEPTOR M1” (Vanderbilt University, priority 2020, published 2022).

In test [1] the target is T1, human mAChR M1 (Homo sapiens, UniProt P11229).
T1 construct: host or cells: CHO-K1 cells (ATCC), stably transfected using Lipofectamine2000
T1 sequence (P11229 1-460): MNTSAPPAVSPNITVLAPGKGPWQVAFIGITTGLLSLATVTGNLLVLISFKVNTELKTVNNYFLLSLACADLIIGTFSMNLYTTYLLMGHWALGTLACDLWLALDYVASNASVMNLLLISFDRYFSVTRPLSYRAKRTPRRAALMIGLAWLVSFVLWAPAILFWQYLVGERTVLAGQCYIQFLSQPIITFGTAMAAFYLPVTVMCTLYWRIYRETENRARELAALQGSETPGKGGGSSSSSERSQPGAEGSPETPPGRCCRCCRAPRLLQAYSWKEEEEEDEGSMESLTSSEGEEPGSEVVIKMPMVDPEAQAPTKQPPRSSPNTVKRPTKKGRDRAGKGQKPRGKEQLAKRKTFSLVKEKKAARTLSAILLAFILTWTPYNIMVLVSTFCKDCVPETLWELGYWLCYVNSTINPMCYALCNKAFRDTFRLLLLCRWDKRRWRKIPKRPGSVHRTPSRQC
Put plainly: mAChR M1 cell-based functional assay (calcium mobilization), PAM activity: increase in the EC20 acetylcholine response. The settings on record: CHO-K1 cells expressing hM1; potentiation of EC20 acetylcholine response. A digest of the protocol: (§1)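 Fluorescence ratio calcium read-out (Fluo-4 AM, FDSS 6000) in human M1-expressing CHO-K1 cells. Agonist activity taken as concentration-dependent rise after compound addition; potentiation as enhancement of a subsequent EC20 acetylcholine challenge. Curves from 11-point threefold dilutions fitted by four-parameter logistic; Emax expressed versus acetylcholine maximum.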
Background: Calcium assays in cells follow changes in intracellular calcium, usually with a dye or a luminescent sensor.

Test [2] concerns the target T1, human mAChR M1. Put plainly: mAChR M1 cell-based functional assay (calcium mobilization), agonist activity upon compound addition. The conditions noted are these: CHO-K1 cells expressing hM1; for EC50: compound alone, before acetylcholine addition; for Emax: relative to the maximum for acetylcholine. A digest of the protocol:
as §1

As usually defined, the EC50 is the concentration needed to bring the measured effect to its halfway point. As usually defined, the Emax is the greatest response seen or fitted, relative to the assay's reference.

For the compound `Cn1cc(-c2ccc(Cn3cc(C(=O)N[C@H]4CCCC[C@@H]4O)c4nccnc4c3=O)c(F)c2)cn1` [Compound A54, 6-(2-fluoro-4-(1-methyl-1H-pyrazol-4-yl)benzyl)-N-((1S,2S)-2-hydroxycyclohexyl)-5-oxo-5,6-dihydropyrido[3,4-b]pyrazine-8-carboxamide], at human mAChR M1 [1], the EC50 was 2370 nM and the Emax was 62%. For the same compound, on human mAChR M1 [2], the EC50 is greater than 10000 nM and the Emax was determined as 26%.

Take `O=C(N[C@H]1CCOC[C@@H]1O)c1cn(Cc2ccc(-c3cscn3)cc2)c(=O)c2cccnc12` [Compound A57, N-((3R,4S)-3-hydroxytetrahydro-2H-pyran-4-yl)-5-oxo-6-(4-(thiazol-4-yl)benzyl)-5,6-dihydro-1,6-naphthyridine-8-carboxamide]: the figures for the EC50 on human mAChR M1 [1] and at human mAChR M1 [2] were 1150 nM and greater than 10000 nM, respectively. Moreover, the maximum response (Emax) worked out at 68% on human mAChR M1 [1] and 25% at human mAChR M1 [2].

For the compound `O=C(N[C@H]1CCCC[C@@H]1O)c1cn(Cc2ccc(-c3cscn3)cc2)c(=O)c2cccnc12` [Compound A59, N-((1S,2S)-2-hydroxycyclohexyl)-5-oxo-6-(4-(thiazol-4-yl)benzyl)-5,6-dihydro-1,6-naphthyridine-8-carboxamide], at human mAChR M1 [1], the EC50 was found to be 420 nM and the Emax was 45%. Moreover, at human mAChR M1 [2], the EC50 is greater than 10000 nM and the Emax was less than 5%.

In the case of `Cn1ccc(-c2ccc(Cn3cc(C(=O)N[C@H]4CCCC[C@@H]4O)c4ncccc4c3=O)c(F)c2)n1` [Compound A2, 6-(2-fluoro-4-(1-methyl-1H-pyrazol-3-yl)benzyl)-N-((1S,2S)-2-hydroxycyclohexyl)-5-oxo-5,6-dihydro-1,6-naphthyridine-8-carboxamide], on human mAChR M1 [1], the EC50 amounted to 730 nM and the maximal effect (Emax) is 91%. For the same compound, on human mAChR M1 [2], the EC50 was greater than 10000 nM and the maximal response (Emax) is less than 5%.

With `Cn1ccc(-c2ccc(Cn3cc(C(=O)N[C@H]4CCCC[C@@H]4O)c4sccc4c3=O)c(F)c2)n1` [Compound D27, 5-(2-fluoro-4-(1-methyl-1H-pyrazol-3-yl)benzyl)-N-((1S,2S)-2-hydroxycyclohexyl)-4-oxo-4,5-dihydrothieno[3,2-c]pyridine-7-carboxamide], the EC50 at human mAChR M1 [1] and at human mAChR M1 [2] was greater than 10000 nM in each case. Besides, the Emax at human mAChR M1 [1] was 37%; on human mAChR M1 [2] it was less than 5%.

Take `Cn1cc(-c2ccc(Cn3cc(C(=O)N[C@H]4CCOC[C@@H]4O)c4ncccc4c3=O)cn2)cn1` [Compound A15, N-((3R,4S)-3-hydroxytetrahydro-2H-pyran-4-yl)-6-((6-(1-methyl-1H-pyrazol-4-yl)pyridin-3-yl)methyl)-5-oxo-5,6-dihydro-1,6-naphthyridine-8-carboxamide]: the half-maximal effective concentration (EC50) at human mAChR M1 [1] amounted to 1370 nM. For the same compound, the maximum response (Emax) stood at 68% at human mAChR M1 [1] and 34% on human mAChR M1 [2].

For `Cn1cc(-c2ccc(Cn3cc(C(=O)N[C@H]4CCC[C@@H]4O)c4ncccc4c3=O)c(F)c2)cn1` [Compound A8, 6-(2-fluoro-4-(1-methyl-1H-pyrazol-4-yl)benzyl)-N-((1S,2S)-2-hydroxycyclopentyl)-5-oxo-5,6-dihydro-1,6-naphthyridine-8-carboxamide], on human mAChR M1 [1], the EC50 was found to be 1290 nM and the Emax was found to be 83%. Moreover, on human mAChR M1 [2], the EC50 is greater than 10000 nM and the Emax is less than 5%.

As to `Cn1cc(-c2ccc(Cn3cc(C(=O)N[C@H]4CCCC[C@@H]4O)c4occc4c3=O)c(F)c2)cn1` [Compound D13, 5-(2-fluoro-4-(1-methyl-1H-pyrazol-4-yl)benzyl)-N-((1S,2S)-2-hydroxycyclohexyl)-4-oxo-4,5-dihydrofuro[3,2-c]pyridine-7-carboxamide], at human mAChR M1 [1], the EC50 was 2120 nM and the Emax amounted to 81%. Besides, on human mAChR M1 [2], the EC50 was greater than 10000 nM and the Emax stood at 11%.
